Reference: US20200054646A1, “USE OF PHENOTHIAZINE DERIVATIVE IN THE TREATMENT OF INFECTIOUS PURPURA OR PURPURA FULMINANS” (priority 2016, published 2020)

Key:
Type in all cases: cell-based, Neisseria meningitidis
[1] = test system: Nm2C4.3 adhesion to human dermal microvascular endothelial cells (HDMECs); test: Meningococcal adhesion to endothelial cells after pretreatment of bacteria; conditions: bacteria pre-treated with 30 μM for 30 minutes
Experimental: Nm2C4.3 grown in suspension were pretreated in the absence or in the presence of 30 μM Trifluoperazine for 30 minutes before adhesion to human dermal microvascular endothelial cells (HDMECs) for 30 minutes. Infection was allowed to proceed for further 30, 60 or 90 minutes before fixation and immunostaining using anti-Nm2C4.3 antibody and Alexa Fluor 633 Phalloidin. (A) Representative fluorescence microscopy showing bacterial colony (white dots) formed at the surface of the endothelial cells. (B) Quantification of the bacterial colonization was performed using Image J software.

[2] = test system: N. meningitidis Nm2C4.3 strain; test: Bactericidal activity on N. meningitidis in liquid culture (colony forming unit count); conditions: for viable count of the culture that contained 10^7 CFU/ml: 15 min treatment
Experimental: N. meningitidis Nm2C4.3 strain grown in liquid culture at 10^7 CFU/ml were treated with increasing concentrations of Trifluoperazine (10 to 50 μM) or Gentamicin (150 μg/ml) for 15 minutes (A) Bactericidal activity was determined by the count of colony forming units on GCB agar plates 24 h after treatment. (B) Images of the non-treated bacteria or bacteria treated with 30 μM TFP grown for 24 h on GCB agar plates.
Nm2C4.3, a piliated capsulated Opa^−Opc^− variant of the serogroup C meningococcal clinical isolate 8013, was cultured in Dulbecco's Modified Eagle Medium (DMEM) 4.5 g/L-Glutamax media 0,1% BSA during two hours at 37° C. 5% C02. A bacterial suspension at optical density (OD) 0.1 was then distributed in 24-well plate (1 ml/well). After 1 hour of incubation, Trifluoperazine (Sigma #T8516, stock solution in PBS) was added to obtain final concentrations of 10, 20, 30, 40, and 50 μM. Gentamicin (150 μg/ml in DMEM) and PBS alone were used as controls. After 15 min treatment, serial dilutions were performed in physiological water and 100 μl of each dilution were plated on Petri dishes containing GCB solid media (BD, Difco GC media) containing supplements, incubated overnight and the colony forming units were counted.

[3] = test system: type IV pili of N. meningitidis 2C4.3 and isogenic PilT mutant; test: Aggregation and type IV pili of wild type and PilT mutant (phase-contrast and transmission electron microscopy)
Experimental: N. meningitidis 2C4.3 wild type strain and the isogenic derivative mutant PilT ([…]PilT) were grown in liquid culture at 10^7 CFU/ml for 2 h to form bacterial aggregates and then treated with 50 μM Trifluoperazine. Time lapse phase-contrast video microscopy was performed to visualize the effect on bacterial aggregates over time. Images were taken at the indicated time points of the video.
N. meningitidis 2C4.3 wild type strain and the isogenic derivative mutant PilT ([…]PilT) were grown in liquid culture at 10^7 CFU/ml for 2 h to form bacterial aggregates and then treated with 50 μM Trifluoperazine for 15 minutes before analysis by transmission electron microscopy. Arrows point at bundles of type IV pili expressed at the bacterial surface.
N. meninigitidis 2C4.3 strain and the isogenic derivative mutant PilT, where the pilT gene was interrupted by an erythromycin-resistance cassette (Pujol et al., 1999), were grown in suspension in DMEM medium supplemented with 10% heat-inactivated fetal calf serum. PilT belongs to a highly conserved protein family homologous to AAA-type motor proteins and is proposed to cause the retraction of type IV pili by disassembling the pilin subunits at the base of the fiber (Morand et al., 2004). After 2 h of growth, Trifluoperazine (or control vehicle) was added at 50 μM for 20 min. The effect on bacterial aggregates were visualized over time using a phase-contrast microscope or the bacterial suspensions were fixed in 4% Paraformaldehyde for 10 min, centrifuged at 1000 rpm for 5 minutes and the bacterial pellets washed in PBS. After negative staining with 1% phosphotungstic acid, bacteria were analysed by transmission electron microscopy, using a JEOL 1011 microscope.

[4] = test system: Nm2C4.3 microcolonies on HBMEC; test: Dispersion of meningococcal microcolonies at the surface of infected human endothelial cells
Experimental: Human […] microvascular endothelial cells (HBMEC) were infected with Nm2C4.3 for 1 h 30, treated with Trifluoperazine (10-40 μM) for 30 minutes, before fixation and immunofluorescence analysis using anti-Nm2C4.3 antibody and Alexa Fluor 633 Phalloidin. (A) Representative fluorescence microscopy showing bacterial colony (white dots) formed at the surface of the endothelial cells. (B) Quantification of the bacterial colonization was performed using Image J software.
HBMEC, a human endothelial cell line isolated from bone marrow capillaries (Schweitzer et al., 1997) were grown in Dulbecco's Modified Eagle Medium (DMEM) 4.5 g/L-Glutamax (ThermoFischer) 10% FBS. Cells were grown on Thermanox coverslips coated with gelatin 2% (BD Difco #214340) for 2 days to reach confluency. Cells were then infected with a suspension of Nm2C4.3 (˜10^7 CFU/ml) in DMEM/FBS during 30 minutes to allow bacterial adhesion. Cells were then washed three times with medium to remove non-adherent bacteria and infection was pursued for 1 h 30: adherent bacteria grew at the endothelial cell surface and formed micro-colonies. Trifluoperazine was then added to obtain final concentrations of 10, 20, 30 and 40 μM. After incubation for 30 minutes, cells were washed and fixed in 4% Paraformaldehyde for 10 min, washed three times with PBS, and permeabilized with 0.1% Triton X-100 in PBS for 10 min. Cells were blocked for 30 min with 3% BSA in PBS and were incubated for 2 h with the primary antibodies (Rabbit polyclonal anti-Nm2C4.3 strain, kindly provided by Dr X. Nassif, INEM, Paris). After three washes with PBS, cells were incubated for 1 h with […] anti-rabbit IgG (Jackson ImmunoResearch Laboratories), together with Alexa Fluor 633 Phalloidin (Thermofischer) and DAPI (0.5 mg ml-1, Sigma Aldrich) to stain Actin and nuclei, respectively. Labelled preparations were mounted in Glycergel media (DAKO) and image acquisitions were performed with a DM16000 microscope (Leica, X40). Quantification was done with ImageJ software (NIH). Results are presented as a vascular colonisation index corresponding to the area occupied by the fluorescently labelled bacteria per fields in relation to the area occupied by the fluorescently labelled human endothelial cells (Actin staining). Statistical analysis were performed with Student t test.

Row | SMILES | adhesion / colony formation at the endothelial cell surface by pre-treated bacteria [1] | viable count of the culture that contained 10^7 CFU/ml ([2]; Trifluoperazine 50 μM) | viable count of the culture that contained 10^7 CFU/ml ([2]; Trifluoperazine 10 to 30 μM) | surface expression of type IV pili, PilT mutant (TEM) ([3]; 50 μM) | type IV pili on bacterial surface, wild type 2C4.3 (TEM) ([3]; 50 μM for 30 minutes) | effect on aggregation of PilT mutant strain ([3]; 50 μM, PilT mutant unable to retract type IV pili) | concentration range of dose-dependent microcolony dispersion ([4]; 30 min, HBMEC and primary HDMEC) | dispersion of compact microcolonies already established at the endothelial cell surface ([4]; treatment for 30 min, HBMEC (also HDMEC)) | bactericidal effect (in words) ([2]; Gentamicin 150 μg/ml, 15 min) | dispersion of microcolonies at the endothelial cell surface ([4]; Gentamicin 150 μg/ml)
1 | CN1CCN(CCCN2c3ccccc3Sc3ccc(C(F)(F)F)cc32)CC1 [Trifluoperazine] | did no longer adhere | 10^3 CFU/ml | 10^6 CFU/ml | did not affect | no longer observed | no effect | 10 to 40 µM | induced their dispersion |  | 
2 | CN[C@@H]1[C@@H](O)C(O[C@@H]2[C@@H](O)[C@H](O[C@H]3O[C@H]([C@@H](C)NC)CC[C@H]3N)[C@@H](N)C[C@H]2N)OC[C@]1(C)O (stereo partly drawn) [Gentamicin, (3R,4R,5R)-2-{[(1S,2S,3R,4S,6R)-4,6-diamino-3-{[(2R,3R,6S)-3-amino-6-[(1R)-1-(methylamino)ethyl]oxan-2-yl]oxy}-2-hydroxycyclohexyl]oxy}-5-methyl-4-(methylamino)oxane-3,5-diol] |  |  |  |  |  |  |  |  | killed all bacteria | poorly induced the dispersion
